US20110281788A1, “ANTI FUNGAL THERAPY” (priority 2008, published 2011)
Like-named read-outs stand apart in the source and are kept apart here. Where a SMILES comes first, the peptide text is derived from it. Where no end group is shown, it is not given here.

What was measured:
[1] = tested on: yeast (Saccharomyces cerevisiae); assay: Disc diffusion assay of yeast growth inhibition (FIG. 1 A-G); assay type: cell-based
From the text: The data shown in FIG. 1(h)-(n) are for the highly resistant yeast Candida glabrata which is difficult to treat due to its high intrinsic resistance to traditional antifungals. The data shown in FIGS. 1(o)-(u) are for Candida albicans. As above, the panels (h) through (u) show the effect of an echinocandin compound, an antimicrobial peptide and a combination of the two on Candida glabrata and Candida albicans.
Sterile filter paper discs (6 mm, Aa, Whatman) were impregnated with either, peptides or caspofungin alone, or peptides and caspofungin together, and left in sterile Petri dishes overnight at room temperature to dry. Following this, 100 μl of mid-exponential phase culture of yeast was spread onto the surface of MEB, pH 7 plus 2% agarose plates and left to dry for 1 h at room temperature. MEB plates were made with 2% agarose rather than agar because the agar inhibited the action of the antimicrobial peptides. Discs containing the various antifungal combinations were then applied to the surface and the plates were incubated at 30° C. for 48 h. Images showing the zones of inhibition were obtained by scanning the plates using an ImageScanner (GE Healthcare UK Ltd, Chalfont St Giles, UK) with ImageMaster Labscan v 3.00 software (GE Healthcare UK Ltd). Images were annotated using Microsoft PhotoDraw.

[2] = tested on: yeast; assay: Liquid culture assay of yeast growth inhibition, OD600 growth curves (FIG. 4); assay type: cell-based; details: sub-inhibitory peptide combined with sub-inhibitory caspofungin
Experimental: The lines represent: Blue—untreated yeast culture alone; Yellow—yeast culture in the presence of a subinhibitory concentration of caspofungin alone; Green—yeast culture in the presence of a subinhibitory concentration of an antimicrobial peptide alone; Red—culture in the presence of a combination of sub-inhibitory caspofungin with sub-inhibitory peptide.
Sterile MEB, pH 7 was added (300 μl) to each well of 48-well microtitre plate (Greiner Bio-one Ltd, Stonehouse, UK) followed by appropriate concentrations of each peptide alone, caspofungin alone and various combinations of peptides with caspofungin. The wells were then inoculated with mid-exponential phase yeast cultures to give starting cell numbers of 1000 cells per well. […] OD600 readings were taken every 15 minutes. Data was analysed in Microsoft Excel.

[3] = tested on: C. albicans SC5314; assay type: cell-based, Candida albicans; details: RPMI-1640, <0.5 synergy, >4 antagonism, 0.5 to 4 no interaction
Experimental: (§1) 96-well micro-titre plate (Greiner Bio-one Ltd, Stonehouse, UK) wells were filled with 150 μl MEB or RPMI-1640, 2% MOPS (Sigma), pH 7 and concentrations of either peptides or caspofungin alone, or combinations of peptides with caspofungin. Approximately 500 cells from mid-exponential phase cultures of the yeast strains described above were then added to each well. Plates were incubated at 30° C. for 48 hours and scanned as described above.
(§2) Fractional inhibitory concentration (FIC) indices for combinations of caspofungin or anidulafungin with various antimicrobial peptides calculated from chequerboard assays of visible growth inhibition of three Candida strains tested in RPMI-1640. IC values highlighted in grey indicate combinations where no synergy was observed. Fractional Inhibitory Concentration (FIC)=[…] where <0.5 synergy, >4 antagonism and 0.5 to 4 no interaction. (Odds, F. C. (2003) Synergy, antagonism, and what the chequerboard puts between them. J. Antimic. Chemother.) N/A—not tested.

[4] = tested on: C. glabrata (Hospital isolate); assay type: cell-based, Candida glabrata; details: RPMI-1640, <0.5 synergy, >4 antagonism, 0.5 to 4 no interaction
Experimental: as §1, §2

[5] = tested on: C. albicans (Hospital isolate); assay type: cell-based, Candida albicans; details: RPMI-1640, <0.5 synergy, >4 antagonism, 0.5 to 4 no interaction
Experimental: as §1, §2

[6] = peptide applied together with caspofungin
[7] = substance alone, at the concentrations displayed
[8] = peptide combined with anidulafungin
[9] = peptide combined with caspofungin

| Compound | zones of clearing around impregnated filter paper discs on agar plates [1, 6] | zones of clearing around impregnated filter paper discs on agar plates [1, 7] | yeast growth (OD600) over 24 h in microtitre plate wells [2] | Fractional inhibitory concentration (FIC) index [3, 8] | Fractional inhibitory concentration (FIC) index [3, 9] | Fractional inhibitory concentration (FIC) index [4, 8] | Fractional inhibitory concentration (FIC) index [4, 9] | Fractional inhibitory concentration (FIC) index [5, 8] | Fractional inhibitory concentration (FIC) index [5, 9] |
| --- | --- | --- | --- | --- | --- | --- | --- | --- | --- |
| CC[C@H](C)[C@H](NC(=O)[C@H](CCSC)NC(=O)[C@H](C)NC(=O)[C@@H]1CCCN1C(=O)[C@@H](NC(=O)[C@@H](NC(=O)[C@H](CCCCN)NC(=O)[C@@H](NC(=O)[C@H](CC(C)C)NC(=O)CNC(=O)CNC(=O)[C@H](CC(C)C)NC(=O)[C@@H](N)Cc1ccccc1)[C@@H](C)CC)[C@@H](C)CC)C(C)C)C(=O)N[C@H]1CSSC[C@@H](C(=O)O)NC(=O)[C@H](CCCCN)NC(=O)[C@H](CCCCN)NC(=O)[C@H]([C@@H](C)O)NC(=O)[C@H](C(C)C)NC(=O)[C@H](C)NC1=O [Ranalexin, ranalexin] (HELM PEPTIDE1{F.L.G.G.L.I.K.I.V.P.A.M.I.C.A.V.T.K.K.C}$PEPTIDE1,PEPTIDE1,14:R3-20:R3$$$V2.0; N-terminus and C-terminus assumed; bridges inferred) | very clear zones of clearing | minimal effect on yeast growth | complete abolition of yeast growth |  |  |  |  |  |  |
| CC[C@H](C)C[C@H](C)CCCCCCCCC(=O)N[C@H]1C[C@@H](O)[C@@H](NCCN)NC(=O)[C@@H]2[C@@H](O)CCN2C(=O)[C@H]([C@H](O)CCN)NC(=O)[C@H]([C@H](O)[C@@H](O)c2ccc(O)cc2)NC(=O)[C@@H]2C[C@@H](O)CN2C(=O)[C@H]([C@@H](C)O)NC1=O [caspofungin, 1-[(4R,5S)-5[(2-aminoethyl)amino]-N^2-(10,12-dimethyl-1-oxotetradecyl)-4-hydroxy-L-ornithine]-5-[(3R)-3-hydroxy-L-ornithine]pneumocandin B0] |  | no zones of clearing |  |  |  |  |  |  |  |
| ALWKNMLKGIGKLAGK [DsS3(1-16), dermaseptin S3(1-16)] | Evident zones of clearing | no zones of clearing visible | complete abolition of yeast growth |  |  |  |  |  |  |
| Colistin sulfate |  |  |  | 0.230 | 0.249 |  |  |  |  |
| GIGKFLHSAKKFGKAFVGEIMNS [Magainin 2, magainin 2] | very clear zones of clearing | minimal effect on yeast growth | complete abolition of yeast growth | 0.095 | 0.144 | 0.376 | 0.278 | 0.087 | 0.135 |
| Polymyxin B |  |  |  | 0.590 | 0.310 |  |  |  |  |
